pKi: −log10 of the molar value. Counter-ions that a name gives are not always drawn.
Target: human MCH-1 receptor (Homo sapiens, UniProt Q99705)
Test: Binding assay for human melanin-concentrating hormone (MCH-1) receptor, radioligand displacement on CHO-K1 cell membranes
Details: for inhibition at 1 µM: read-out: MCH1 % inhibition @ 1 uM
Protocol: Nonspecific binding was determined in the presence of 50 μM 1-(5-(4-cyanophenyl)bicyclo[3.1.0]hexan-2-yl)-3-(4-fluoro-3-(trifluoromethyl)phenyl)-1-(3-(4-methylpiperazin-1-yl)propyl)urea. […] The filters were counted for radioactivity in a liquid scintillation counter (Tri-Carb 2100TR, Packard) using a scintillation cocktail (Ultima Gold MV, Perkin Elmer).
The results are expressed as a percent inhibition of the control radioligand specific binding. The IC50 value (concentration causing a half-maximal inhibition of control specific binding) and Hill coefficient (nH) were determined by non-linear regression analysis of the competition curve using Hill equation curve fitting.

human MCH-1 receptor, sequence (Q99705 whole entry): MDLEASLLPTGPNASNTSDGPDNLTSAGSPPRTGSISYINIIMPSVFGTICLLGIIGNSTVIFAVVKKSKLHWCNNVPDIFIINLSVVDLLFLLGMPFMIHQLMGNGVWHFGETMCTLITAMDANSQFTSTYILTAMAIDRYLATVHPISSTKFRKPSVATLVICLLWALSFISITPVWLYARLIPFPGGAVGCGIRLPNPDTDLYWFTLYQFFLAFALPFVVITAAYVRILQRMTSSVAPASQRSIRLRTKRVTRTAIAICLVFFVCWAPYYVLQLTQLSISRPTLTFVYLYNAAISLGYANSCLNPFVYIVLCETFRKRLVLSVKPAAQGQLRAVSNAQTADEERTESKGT

Compound	pKi	inhibition at 1 µM
O=c1cc(OCc2cccc(C(F)(F)F)n2)ccn1-c1ccc2c3c(oc2c1)CCCNC3 [Example 43, 1-(2,3,4,5-Tetrahydro-1H-benzofuro[3,2-c]azepin-8-yl)-4-((6-(trifluoromethyl)pyridin-2-yl)methoxy)pyridin-2(1H)-one hydrochloride]	8.01	
O=c1cc(OCc2ccc(F)cn2)cnn1-c1ccc2c3c(oc2c1)CCCNC3 [Example 44, 5-((5-Fluoropyridin-2-yl)methoxy)-2-(2,3,4,5-tetrahydro-1H-benzofuro[3,2-c]azepin-8-yl)pyridazin-3(2H)-one hydrochloride]	7.89	
Cc1ccc(COc2ccn(-c3ccc4c5c(oc4c3)CCCNC5)c(=O)c2)cn1 [Example 46, 4-((6-Methylpyridin-3-yl)methoxy)-1-(2,3,4,5-tetrahydro-1H-benzofuro[3,2-c]azepin-8-yl)pyridin-2(1H)-one hydrochloride]	7.33	
O=c1cc(OCc2ccc(C(F)(F)F)nc2)ccn1-c1ccc2c3c(oc2c1)CCNCC3 [Example 47, 1-(2,3,4,5-Tetrahydro-1H-benzofuro[2,3-d]azepin-8-yl)-4-((6-(trifluoromethyl)pyridin-3-yl)methoxy)pyridin-2(1H)-one hydrochloride]	7.26	
O=c1cc(-c2ccc(C(F)(F)F)cc2)ccn1-c1ccc2c3c(oc2c1)CCCNC3 [Example 48, 1-(2,3,4,5-Tetrahydro-1H-benzofuro[3,2-c]azepin-8-yl)-4-(4-(trifluoromethyl)phenyl)pyridin-2(1H)-one hydrochloride]	8.35	
O=C1NCCc2c1sc1cc(-n3ccc(OCc4ccc(F)cn4)cc3=O)ccc21 [Example 54, 7-(4-((5-Fluoropyridin-2-yl)methoxy)-2-oxopyridin-1(2H)-yl)-3,4-dihydrobenzothieno[2,3-c]pyridin-1(2H)-one]		60%
O=c1cc(OCc2ccc(F)cn2)ccn1-c1ccc2c3c(sc2c1)CCNC3 [Example 55, 4-((5-Fluoropyridin-2-yl)methoxy)-1-(1,2,3,4-tetrahydrobenzothieno[3,2-c]pyridin-7-yl)pyridin-2(1H)-one hydrochloride]	8.57	
O=c1cc(OCc2ccc(F)cn2)ccn1-c1ccc2c3c(sc2c1)CN(CCF)CC3 [Example 59, 1-(2-(2-Fluoroethyl)-1,2,3,4-tetrahydrobenzothieno[2,3-c]pyridin-7-yl)-4-((5-fluoropyridin-2-yl)methoxy)pyridin-2(1H)-one hydrochloride]	7.44	
O=C1CN(CCc2ccc(F)cn2)CCN1c1ccc2c3c(sc2c1)CNCC3 [Example 60, 4-(2-(5-Fluoropyridin-2-yl)ethyl)-1-(1,2,3,4-tetrahydrobenzothieno[2,3-c]pyridin-7-yl)piperazin-2-one hydrochloride]	6.93	
Cc1ccc(COc2ccn(-c3ccc4c5c(sc4c3)CNCC5)c(=O)c2)cn1 [Example 62, 4-((6-Methylpyridin-3-yl)methoxy)-1-(1,2,3,4-tetrahydrobenzothieno[2,3-c]pyridin-7-yl)pyridin-2(1H)-one hydrochloride]	6.99	
O=C1CN(CCc2ccc(Cl)cc2)CCN1c1ccc2c3c(sc2c1)CNCC3 [Example 63, 4-(4-Chlorophenethyl)-1-(1,2,3,4-tetrahydrobenzothieno[2,3-c]pyridin-7-yl)piperazin-2-one hydrochloride]	7.48	
O=c1cc(OCc2ccc(F)cn2)ccn1-c1ccc2c3c(oc2c1)CCN(CCF)C3 [Example 72, 1-(2-(2-Fluoroethyl)-1,2,3,4-tetrahydrobenzofuro[3,2-c]pyridin-7-yl)-4-((5-fluoropyridin-2-yl)methoxy)pyridin-2(1H)-one hydrochloride]	7.54	
O=c1cc(OCc2ccccc2)ccn1-c1ccc2c3c(oc2c1)CCN1CCCC31 (stereo not drawn) [Example 73, 4-(Benzyloxy)-1-(1,2,3,5,6,11c-hexahydrobenzofuro[2,3-g]indolizin-9-yl)pyridin-2(1H)-one hydrochloride]	8.26	
O=c1cc(OCc2ccc(F)cn2)ccn1-c1ccc2oc3c(c2c1)CNCC3 [Example 76, 4-((5-Fluoropyridin-2-yl)methoxy)-1-(1,2,3,4-tetrahydrobenzofuro[3,2-c]pyridin-8-yl)pyridin-2(1H)-one hydrochloride]		35%
O=c1cc(OCc2ccccc2)ccn1-c1ccc2oc3c(c2c1)CNCCC3 [Example 78, 4-(Benzyloxy)-1-(2,3,4,5-tetrahydro-1H-benzofuro[3,2-c]azepin-9-yl)pyridin-2(1H)-one hydrochloride]		35%
O=c1cc(OCc2ccc(F)cn2)ccn1-c1ccc2c3c(oc2c1)CCN1CCCC31 (stereo not drawn) [Example 80, 4-((5-Fluoropyridin-2-yl)methoxy)-1-(1,2,3,5,6,11c-hexahydrobenzofuro[2,3-g]indolizin-9-yl)pyridin-2(1H)-one hydrochloride]	8.08	
CN1CCCc2oc3cc(-n4ccc(-c5ccc(C(F)(F)F)cc5)cc4=O)ccc3c2C1 [Example 82, 1-(2-Methyl-2,3,4,5-tetrahydro-1H-benzofuro[3,2-c]azepin-8-yl)-4-(4-(trifluoromethyl)phenyl)pyridin-2(1H)-one hydrochloride]	8.09	
CN1CCc2oc3cc(-n4ccc(OCc5ccc(C(F)(F)F)nc5)cc4=O)ccc3c2CC1 [Example 84, 1-(3-Methyl-2,3,4,5-tetrahydro-1H-benzofuro[2,3-d]azepin-8-yl)-4-((6-(trifluoromethyl)pyridin-3-yl)methoxy)pyridin-2(1H)-one hydrochloride]	7.54	
Cc1ccc(COc2ccn(-c3ccc4c5c(oc4c3)CCCN(C)C5)c(=O)c2)cn1 [Example 85, 1-(2-Methyl-2,3,4,5-tetrahydro-1H-benzofuro[3,2-c]azepin-8-yl)-4-((6-methylpyridin-3-yl)methoxy)pyridin-2(1H)-one hydrochloride]	6.94	

More lines, now with the values ahead:

pKi	inhibition at 1 µM	Compound
7.54		O=c1cc(OCc2ccc(C(F)(F)F)nc2)ccn1-c1ccc2c3c(oc2c1)CCCNC3 [Example 45, 1-(2,3,4,5-Tetrahydro-1H-benzofuro[3,2-c]azepin-8-yl)-4-((6-(trifluoromethyl)pyridin-3-yl)methoxy)pyridin-2(1H)-one hydrochloride]
7.66		CN1CCCc2oc3cc(-n4ccc(OCc5cccc(C(F)(F)F)n5)cc4=O)ccc3c2C1 [Example 49, 1-(2-Methyl-2,3,4,5-tetrahydro-1H-benzofuro[3,2-c]azepin-8-yl)-4-((6-(trifluoromethyl)pyridin-2-yl)methoxy)pyridin-2(1H)-one hydrochloride]
7.41		CC(=O)N1CCc2c(sc3cc(-n4ccc(OCc5ccc(F)cn5)cc4=O)ccc23)C1 [Example 53, 1-(2-Acetyl-1,2,3,4-tetrahydrobenzothieno[2,3-c]pyridin-7-yl)-4-((5-fluoropyridin-2-yl)methoxy)pyridin-2(1H)-one]
8.02		CCN1CCc2c(sc3cc(-n4ccc(OCc5ccc(F)cn5)cc4=O)ccc23)C1 [Example 56, 1-(2-Ethyl-1,2,3,4-tetrahydrobenzothieno[2,3-c]pyridin-7-yl)-4-((5-fluoropyridin-2-yl)methoxy)pyridin-2(1H)-one hydrochloride]
7.96		CC(C)N1CCc2c(sc3cc(-n4ccc(OCc5ccc(F)cn5)cc4=O)ccc23)C1 [Example 57, 4-((5-Fluoropyridin-2-yl)methoxy)-1-(2-isopropyl-1,2,3,4-tetrahydrobenzothieno[2,3-c]pyridin-7-yl)pyridin-2(1H)-one hydrochloride]
8.21		CN1CCc2c(sc3cc(-n4ccc(OCc5ccc(F)cn5)cc4=O)ccc23)C1 [Example 58, 4-((5-Fluoropyridin-2-yl)methoxy)-1-(2-methyl-1,2,3,4-tetrahydrobenzothieno[2,3-c]pyridin-7-yl)pyridin-2(1H)-one hydrochloride]
7.47		O=c1cc(OCc2ccc(F)cn2)cnn1-c1ccc2c3c(sc2c1)CNCC3 [Example 61, 5-((5-Fluoropyridin-2-yl)methoxy)-2-(1,2,3,4-tetrahydrobenzothieno[2,3-c]pyridin-7-yl)pyridazin-3(2H)-one]
7.32		O=c1cc(OCc2ccc(C(F)(F)F)nc2)ccn1-c1ccc2c3c(sc2c1)CNCC3 [Example 64, 1-(1,2,3,4-Tetrahydrobenzothieno[2,3-c]pyridin-7-yl)-4-((6-(trifluoromethyl)pyridin-3-yl)methoxy)pyridin-2(1H)-one hydrochloride]
6.43		O=c1cc(OCc2ccccc2)ccn1-c1ccc2oc3c(c2c1)CNCC3 [Example 74, 4-(Benzyloxy)-1-(1,2,3,4-tetrahydrobenzofuro[3,2-c]pyridin-8-yl)pyridin-2(1H)-one hydrochloride]
	34%	O=c1cc(OCc2ccc(F)cn2)ccn1-c1ccc2oc3c(c2c1)CNCCC3 [Example 75, 4-((5-Fluoropyridin-2-yl)methoxy)-1-(2,3,4,5-tetrahydro-1H-benzofuro[3,2-c]azepin-9-yl)pyridin-2(1H)-one hydrochloride]
7.36		O=c1cc(OCc2ccccc2)ccn1-c1ccc2oc3c(c2c1)CCNCC3 [Example 77, 4-(Benzyloxy)-1-(2,3,4,5-tetrahydro-1H-benzofuro[2,3-d]azepin-9-yl)pyridin-2(1H)-one hydrochloride]
7.11		O=c1cc(OCc2ccc(F)cn2)ccn1-c1ccc2oc3c(c2c1)CCNCC3 [Example 79, 4-((5-Fluoropyridin-2-yl)methoxy)-1-(2,3,4,5-tetrahydro-1H-benzofuro[2,3-d]azepin-9-yl)pyridin-2(1H)-one hydrochloride]
7.21		CC(C)N1CCCc2oc3cc(-n4ccc(OCc5cccc(C(F)(F)F)n5)cc4=O)ccc3c2C1 [Example 81, 1-(2-Isopropyl-2,3,4,5-tetrahydro-1H-benzofuro[3,2-c]azepin-8-yl)-4-((6-(trifluoromethyl)pyridin-2-yl)methoxy)pyridin-2(1H)-one hydrochloride]
7.28		O=C1CN(CCc2ccc(F)cn2)CCN1c1ccc2c3c(oc2c1)CCCNC3 [Example 83, 4-(2-(5-Fluoropyridin-2-yl)ethyl)-1-(2,3,4,5-tetrahydro-1H-benzofuro[3,2-c]azepin-8-yl)piperazin-2-one hydrochloride]
